Assay [1] deals with CLL patient cells. As to the kind of experiment: CLL cell viability, Cell Titer-Blue Cell Viability Assay. The class given is cell-based. Conditions: Homo sapiens, 48 hours culture, FIG. 1, read-out: IC50, reduction of CLL cell viability. The source says: The common off-target with the best binding was ERRB2 in the EGFR family of receptors. Afatinib (an irreversible inhibitor that covalently binds to the EGFR family of receptors (including ERBB2) active tyrosine kinase domain ATP-binding site, a similar mechanism to that of the BTK inhibitors) was chosen as an example EGFR family inhibitor to test this hypothesis. […] Media is RPMI1640 (Cellgro, Corning) supplemented with penicillin, streptomycin, L-glutamine (Gibco, ThermoFisher Scientific, Waltham, Mass.), and 10% heat-inactivated fetal bovine serum (Sigma-Aldrich, St. Louis, Mo.). After cell culture, viability was measured by Cell Titer-Blue Cell Viability Assay (Promega, Madison, Wis.) according to manufacturer's directions. Non-viable cells produce less fluorescence. Measurements were done in triplicate for each concentration. Fluorescence was measured on a BioTek Synergy2 96-well plate reader (BioTek Instruments, Winooski, Vt.). Data was analysed using Prism6 software (GraphPad Software, La Jolla, Calif.) and dose curve was generated using 4PL fit. Afatinib reduces CLL cell viability in a dose dependent manner (IC50 0.4 μM) as shown in FIG. 1 (all data points shown).
In general terms: The colour change of resazurin is a common sign of viable cells or microbes.

The subject of assay [2] is CLL patient cells. As to the kind of experiment: CLL cell death, CellTox Green Cytotoxicity Assay. The class given is cell-based. Conditions: Homo sapiens, 48 hours culture, FIG. 3, read-out: IC50, induction of CLL cell death. The source says: The common off-target with the best binding was ERRB2 in the EGFR family of receptors. Afatinib (an irreversible inhibitor that covalently binds to the EGFR family of receptors (including ERBB2) active tyrosine kinase domain ATP-binding site, a similar mechanism to that of the BTK inhibitors) was chosen as an example EGFR family inhibitor to test this hypothesis. […] Media is RPMI1640 (Cellgro, Corning) supplemented with penicillin, streptomycin, L-glutamine (Gibco, ThermoFisher Scientific, Waltham, Mass.), and 10% heat-inactivated fetal bovine serum (Sigma-Aldrich, St. Louis, Mo.). After cell culture, viability was measured by Cell Titer-Blue Cell Viability Assay (Promega, Madison, Wis.) according to manufacturer's directions. Non-viable cells produce less fluorescence. Measurements were done in triplicate for each concentration. Fluorescence was measured on a BioTek Synergy2 96-well plate reader (BioTek Instruments, Winooski, Vt.). Data was analysed using Prism6 software (GraphPad Software, La Jolla, Calif.) and dose curve was generated using 4PL fit. […] To test that an EGFR family inhibitor not only reduces CLL cell viability, but also induces cell death in vitro, cytotoxicity was measured by CellTox Green Cytotoxicity Assay (Promega). Dead cells produce more fluorescence in this assay. […] Fluorescence was measured on a BioTek Synergy2 96-well plate reader (BioTek Instruments). […]

In assay [3] the test system is CA46 cell line. As to the kind of experiment: NHL p53 mutated cell line viability, Cell Titer-Glo 2.0 Assay. Type of assay: cell-based. Conditions: Homo sapiens; CA46 (BL-derived, p.R248Q p53), 54 hours culture, Cell Titer-Glo 2.0, FIG. 9; read-out: IC50, reduction of cell viability of p53 mutated NHL cell line. Here is the method: Luminescence was measured on a BioTek Synergy2 96-well plate reader (BioTek Instruments). Data was analysed using Prism6 software (GraphPad Software) and dose curve was generated using 4PL fit.

Assay [4] deals with CA46 cell line. As to the kind of experiment: NHL p53 mutated cell line death, CellTox Green Cytotoxicity Assay. Conditions: Homo sapiens, CA46, 54 hours culture, FIG. 10, read-out: IC50, induction of cell death of p53 mutated NHL cell line. Type of assay: cell-based.
Another assay deals with AML patient cells. As to the kind of experiment: AML cell death, CellTox Green Cytotoxicity Assay. Type of assay: cell-based. To be noted: Homo sapiens, one AML patient sample, 30 hours culture, FIG. 7, read-out: IC50, induction of AML cell death.
In assay [5] the test system is primary AML suspension cells. As to the kind of experiment: AML cell viability, Cell Titer-Glo 2.0 Assay. The class given is cell-based, human. Conditions: two different AML patient samples, 30 hours culture, Cell Titer-Glo 2.0, FIG. 6, read-out: IC50, reduction of AML cell viability. As to the method:
To test this, primary AML suspension cells were treated in vitro with afatinib. Cell viability was measured by Cell Titer-Glo 2.0 Assay (Promega) in triplicate for each concentration. Two different AML patient cells (1×10^5 cells/100 μL media) were cultured for 30 hours in clear 96-well flat bottom tissue culture plates (Costar, Corning) with serial drug dilutions (100 μM afatinib (LC Laboratories) serially diluted 3-fold ending at ˜0.01 μM). Media is RPMI1640 (Cellgro, Corning) supplemented with penicillin, streptomycin, L-glutamine (Gibco, ThermoFisher Scientific), and 10% heat-inactivated fetal bovine serum (Sigma-Aldrich). After cell culture, viability was assayed according to manufacturer's directions. Luminescence was measured on a BioTek Synergy2 96-well plate reader (BioTek Instruments). Data was analysed using Prism6 software (GraphPad Software) and dose curve was generated using 4PL fit.

The test system of assay [6] is CLL patient cells. As to the kind of experiment: CLL cell viability, Cell Titer-Glo 2.0 Assay. Type of assay: cell-based, human. Conditions: for IC50: Homo sapiens, CLL patient cells, 48 hours culture. Here is the method:
After cell culture, viability was assayed according to manufacturer's directions. Luminescence was measured on a BioTek Synergy2 96-well plate reader (BioTek Instruments). Data was analysed using Prism6 software (GraphPad Software) and dose curve was generated using 4PL fit.
Cell viability was measured by Cell Titer-Glo 2.0 Assay (Promega) in triplicate for each concentration. […] After cell culture, viability was assayed according to manufacturer's directions. Luminescence was measured on a BioTek Synergy2 96-well plate reader (BioTek Instruments). Data was analysed using Prism6 software (GraphPad Software) and dose curve was generated using 4PL fit.
(In ATP-based viability assays light output follows the ATP content of the culture.)

Read-outs that look alike come from different tables or passages of the source.

The IC50 is the point on the concentration scale where inhibition reaches its midpoint.

For the compound `CN(C)C/C=C/C(=O)Nc1cc2c(Nc3ccc(F)c(Cl)c3)ncnc2cc1O[C@H]1CCOC1` [Afatinib], the IC50 with CLL patient cells [1] came to 0.4 µM; in the assay on CLL patient cells [2] it was 12 µM; with CA46 cell line [3], 3 µM; in the assay with CA46 cell line [4], 22 µM; in the assay on AML patient cells, 19 µM; in assay [5] (Homo sapiens, 30 h) it was 2.1 µM. Also, the IC50 in assay [5] is 2.6 µM; in the assay with CLL patient cells [6] (read-out: IC50, reduction of CLL cell viability (afatinib vs ibrutinib comparison), Cell Titer-Glo 2.0, FIG. 4), 0.5 µM; in the assay on CLL patient cells [6] (Cell Titer-Glo 2.0, FIG. 2, read-out: IC50, reduction of CLL cell viability), 0.3 µM. For the same compound, in the assay with CLL patient cells [6] (ratio of IC50 values, FIG. 4), the “fold lower concentration than ibrutinib for reduction of CLL cell viability” value was 20 fold.
